Values quoted from earlier work in patent US20040253327A1, “Compositions and methods for reducing or controlling blood cholesterol, lipoproteins, triglycerides, and sugar and preventing or treating cardiovascular diseases” (priority 2003, published 2004).

Key:
[1] = human, in vivo

Molecule | patients developing gastrointestinal complaints [1] | reduction of blood triglyceride and LDL cholesterol levels [1] | triglyceride level (after 2 months of supplementation (vs. 161 mg/dl)) | reduction in triglyceride levels (supplementation for 2 months, P<0.05)
CN(C)C(=N)N=C(N)N [metformin] | Up to 30% | about 10% | – | –
chromium picolinate | – | – | 133 mg/dL | 17.4%
